Tests used:
[1] = biological response as a function of release rate from paclitaxel coated stent (FIGS. 2a-2c); type: in vivo; conditions: dose 1.0 micrograms/mm^2
Excerpt: FIG. 2 and FIGS. 2a-2c illustrate the difference in biological response resulting from the difference in release rate from a paclitaxel coated stent.
(§1) Using the 1.0 micrograms/mm^2 dose as an exemplary embodiment, the effects of release rate were investigated. Metallic stents were coated with paclitaxel in a styrene-isobutylene based block copolymer carrier with the weight percent of paclitaxel in the carrier varying from approximately 8.8 to about 35%. The dose of drug applied to the stents was kept at 1.0 micrograms/mm^2, and the total drug dose was held constant by varying total coating weight.

healthy porcine arteries = conditions: dosing of approximately 1.0 micrograms/mm^2 in a polymer coating
Excerpt: Paclitaxel coated metallic stents of various doses were implanted into healthy porcine arteries to determine the effect of dosage on biological response. Dosages used were approximately 4.0, 2.0, 1.0, and 0.6 micrograms per square millimeter of the stent surface area, corresponding to approximate total dosages of 345, 175, 85, and 50 micrograms per stent. The paclitaxel was contained within a styrene-isobutylene based block copolymer applied to the stent struts.

[2] = in vitro release studies involving an aqueous environment (FIG. 2); type: physicochemical; conditions: dose 1.0 micrograms/mm^2
Excerpt: as §1

[3] = weight fraction less than about 35% in polymer carrier

## CC(=O)O[C@H]1C(=O)[C@@]2(C)[C@H]([C@H](OC(=O)c3ccccc3)[C@]3(O)C[C@H](OC(=O)[C@H](O)[C@@H](NC(=O)c4ccccc4)c4ccccc4)C(C)=C1C3(C)C)[C@]1(OC(C)=O)CO[C@@H]1C[C@@H]2O [paclitaxel]
[1]; fastest release rate (FIG. 2a)
  fibrin accumulation: noticeable fibrin accumulation
[1]; slower release rates (FIGS. 2b and 2c)
  fibrin accumulation: did not result in this effect
Healthy porcine arteries
  safety and efficacy: superior safety and efficacy
[2]; 8.8% weight fraction in styrene-isobutylene based block copolymer carrier
  paclitaxel released within two days: about 2 micrograms
[2]; 35% weight fraction in styrene-isobutylene based block copolymer carrier
  paclitaxel released within two days: approximately 45 micrograms
[2]; all curves in FIG. 2 (weight fractions 8.8 to 35%)
  release profile over time: relatively rapid release rate over the first few days, followed by a slower, sustained release over up to about two weeks
[2]; [3]
  paclitaxel released within ten days: less than 60 micrograms
  paclitaxel released within two days: less than 45 micrograms

Source: US7906133B2, “Optimized dosing for drug coated stents” (Boston Scientific Scimed, Inc., priority 2002, dated 2011)
